Laboratory results from PMC6100582 (Molecules : A Journal of Synthetic Chemistry and Natural …, 2018).
Read-outs that look alike come from different tables or passages of the source.

What was measured:
Punta Toro Virus = test: microbe, parasite or virus in culture; assay type: cell-based; details: Vero cells
[1] = test system: Acinetobacter baumannii MFBF 10913; test: Minimum biofilm eradication assay; assay type: cell-based
Experimental: (§1) MBECs of fumardiamides 4a–f and succindiamides 5a–f were determined as follows. Each well (96-well plate) was filled with 100 µl of bacterial (10^7 CFU/mL) or yeast (5 × 10^6 CFU/mL) suspension. When the inhibition of yeast biofilm formation was tested, the wells were pre-treated with fetal bovine serum (FBS) (250 µl per well). Negative controls contained broth only. Positive controls were performed using standard antimicrobial drugs gentamycin (Gen) and Amph, respectively. […] Following incubation period, each well was aspirated, washed three times and vigorously shaken to remove all non-adherent bacteria/yeast. The remaining attached cells were fixed with methanol (15 min) and the plates were left to dry overnight. Formed biofilm was stained with crystal violet (1%, 5 min). Excess stain was rinsed by placing the plate under running tap water and the plates were left to dry. Adherent cells were solubilized using ethanol. The absorbance was read at 570 nm. The MBEC value represents the lowest dilution of a compound at which bacteria fail to grow.

[2] = test system: Escherichia coli ATCC 10536; test: Minimum biofilm eradication assay; assay type: cell-based
Experimental: as §1

[3] = test system: Salmonella enteritidis MFBF 11945; test: Minimum biofilm eradication assay; assay type: cell-based
Experimental: as §1

[4] = test system: Staphylococcus aureus ATCC 6538; test: Minimum biofilm eradication assay; assay type: cell-based
Experimental: as §1

[5] = test system: Bacillus subtilis ATCC 6633; test: Minimum biofilm eradication assay; assay type: cell-based
Experimental: as §1

[6] = test system: Serratia marcescens ATCC 10905; test: Minimum biofilm eradication assay; assay type: cell-based
Experimental: as §1

[7] = test system: Proteus mirabilis MFBF 10430; test: Minimum biofilm eradication assay; assay type: cell-based
Experimental: as §1

[8] = test system: Bacillus cereus ATCC 11778; test: Minimum biofilm eradication assay; assay type: cell-based
Experimental: as §1

[9] = test system: Enterococcus faecalis ATCC 29212; test: Minimum biofilm eradication assay; assay type: cell-based
Experimental: as §1

[10] = test system: Pseudomonas aeruginosa ATCC 27853; test: Minimum biofilm eradication assay; assay type: cell-based
Experimental: as §1

[11] = test system: Streptococcus pneumonia MFBF 10373; test: Minimum biofilm eradication assay; assay type: cell-based, Streptococcus pneumoniae
Experimental: as §1

[12] = test system: DND-41 (acute lymphoblastic leukemia); test: Antiproliferative screening (cytostatic activity); assay type: cell-based, human; details: 72 h, IncuCyte imaging, read-out: IC50 DND-41
Experimental: (§2) Cytostatic activity was evaluated in vitro on nine different types of human tumor cell lines: Capan-1, Hap1, HCT-116, and NCI-H460, as well as hematological tumors such as DND-41, HL-60, K-562, MM.1S and Z-138 as described previously. All human tumor cell lines were acquired from the American Type Culture Collection (ATCC, Manassas, VA, USA), except for the DND-41 cell line which was purchased from the Deutsche Sammlung von Mikroorganismen und Zellkulturen (DSMZ Leibniz-Institut, Braunschweig, Germany) and the Hap1 cell line which was purchased from Horizon Discovery (Waterbeach, UK). Capan-1, Hap1, HL-60, K-562, Z-138, MM.1S and DND-41 were cultured in Iscove′s Modified Dulbecco′s Medium (IMDM, Gibco Life Technologies, Gaithersburg, MD, USA), HCT-116 were grown in McCoy′s 5A Medium (Gibco Life Technologies) and NCI-H460 were cultured in RPMI (Gibco Life Technologies). All media were supplemented with 10% FBS (HyClone, GE Healthcare Life Sciences, USA). Adherent cell lines HCT-116, Hap1, NCI-H460, and Capan-1 cells were seeded at a density between 400 and 1250 cells per well, in 384-well, black-walled, clear-bottomed tissue culture plates (Greiner Bio-One, Kremsmünster, Germany). After overnight incubation, cells were treated with test compounds at four different concentrations ranging from 100 to 0.8 µM. Suspension cell lines HL-60, K-562, Z-138, MM.1S, and DND-41 were seeded at densities ranging from 3000 to 10,000 cells per well in 384-well, black-walled, clear-bottomed tissue culture plates containing test compounds at the same four concentrations. The plates were incubated and monitored at 37 °C for 72 h in an IncuCyte (Essen BioScience Inc., Ann Arbor, MI, USA) for real-time imaging. Images were taken every 3 h, with one field image per well under 10× magnification. All compounds were tested with duplicate data points and averaged. […]

[13] = test system: HL-60 (acute myeloid leukemia); test: Antiproliferative screening (cytostatic activity); assay type: cell-based; details: Homo sapiens, HL-60; 72 h, IncuCyte imaging; read-out: IC50 HL-60
Experimental: as §2

[14] = test system: Hap1 (chronic myeloid leukemia); test: Antiproliferative screening (cytostatic activity); assay type: cell-based; details: Homo sapiens, HAP1; 72 h, IncuCyte imaging; read-out: IC50 Hap1
Experimental: as §2

[15] = test system: panel of nine different human cancer cell lines; test: Cytostatic activity, panel of nine human cancer cell lines; assay type: cell-based; details: all nine tested cell lines, read-out: IC50 (range over all tested cell lines)
Experimental: To gain insight into cytotoxicity of newly synthesized compounds 4a–f and 5a–f, their cytostatic activity was evaluated in vitro against a panel of nine different human cancer cell lines, representing various solid tumor types including pancreatic adenocarcinoma (Capan-1), chronic myeloid leukemia (Hap1), colorectal carcinoma (HCT-116), lung carcinoma (NCI-H460), acute lymphoblastic leukemia (DND-41), acute myeloid leukemia (HL-60), chronic myeloid leukemia (K-562), multiple myeloma (MM.1S) and non-Hodgkin lymphoma (Z-138).
Cytostatic activity was evaluated in vitro on nine different types of human tumor cell lines: Capan-1, Hap1, HCT-116, and NCI-H460, as well as hematological tumors such as DND-41, HL-60, K-562, MM.1S and Z-138 as described previously. All human tumor cell lines were acquired from the American Type Culture Collection (ATCC, Manassas, VA, USA), except for the DND-41 cell line which was purchased from the Deutsche Sammlung von Mikroorganismen und Zellkulturen (DSMZ Leibniz-Institut, Braunschweig, Germany) and the Hap1 cell line which was purchased from Horizon Discovery (Waterbeach, UK). […] The plates were incubated and monitored at 37 °C for 72 h in an IncuCyte (Essen BioScience Inc., Ann Arbor, MI, USA) for real-time imaging. […]

Vero cell cultures = details: Vero cells, microscopically detectable alteration of cell morphology; unit not printed in head (EC50 columns µM)
[16] = test system: broad variety of viral infections; test: Antiviral evaluation, broad variety of viruses; assay type: cell-based; details: Vero cells; for EC50: reovirus-1, sindbis virus and Punta Toro virus, read-out: EC50 (range over viruses)
[17] = test system: panel of bacteria, Mycobacterium strains and fungi; test: Antimicrobial screening, panel of bacteria, Mycobacterium strains and fungi; assay type: cell-based; details: S. aureus, S. pneumoniae, A. baumannii and C. albicans ATCC 90028
[18] = MTS, read-out: EC50 Punta Toro Virus, MTS
[19] = visual CPE score, read-out: EC50 Punta Toro Virus, Visual CPE Score

Compound	EC50 (Punta Toro Virus; [18]) [µM]	MBEC [1] [µg/mL]	MBEC [2] [µg/mL]	MBEC [3] [µg/mL]	MBEC [4] [µg/mL]	MBEC [5] [µg/mL]	MBEC [6] [µg/mL]	MBEC [7] [µg/mL]	MBEC [8] [µg/mL]	MBEC [9] [µg/mL]	MBEC [10] [µg/mL]	melting point [°C]	MBEC [11] [µg/mL]	IC50 ([12]; Homo sapiens, DND41, 72 h) [µM]	IC50 [13] [µM]	IC50 [14] [µM]	EC50 (Punta Toro Virus; [19]) [µM]	Cytotoxicity MCC (minimum cytotoxic concentration) (Vero cell cultures)	selectivity index (SI), MCC and EC50 ratio [16]	EC50 [16] [µM]	further results
COc1cc(NC(C)CCCNC(=O)/C=C/C(=O)Nc2cccc(F)c2)c2ncccc2c1 (stereo not shown) [Compound 4a, (2E)-N-(3-Fluorophenyl)-N′-{4-[(6-methoxyquinolin-8-yl)amino]pentyl}but-2-enediamide]	> 50	6.3	100	>100	12.5	50	25	>100	>100	25	25	203 to 204	12.5	6.7	5.7	19.3					IC50 [15]: 5.7 to 31.2 µM
COc1cc(NC(C)CCCNC(=O)/C=C/C(=O)Nc2ccc(F)cc2)c2ncccc2c1 (stereo not shown) [Compound 4b, (2E)-N-(4-Fluorophenyl)-N′-{4-[(6-methoxyquinolin-8-yl)amino]pentyl}but-2-enediamide]	> 50	25	50	>100	12.5	25	>100	25	25	25	12.5	226 to 227	25	> 100	> 100	66.4					
COc1cc(NC(C)CCCNC(=O)/C=C/C(=O)Nc2cccc(Cl)c2)c2ncccc2c1 (stereo not shown) [Compound 4c, (2E)-N-(3-Chlorophenyl)-N′-{4-[(6-methoxyquinolin-8-yl)amino]pentyl}but-2-enediamide]	5.5	100	50	>100	12.5	50	>100	>100	25	25	50	187 to 188	100	8.4	> 100	> 100	> 50	10	1.8–3.7	3.1 to 5.5	
COc1cc(NC(C)CCCNC(=O)/C=C/C(=O)Nc2ccc(Cl)cc2)c2ncccc2c1 (stereo not shown) [Compound 4d, (2E)-N-(4-Chlorophenyl)-N′-{4-[(6-methoxyquinolin-8-yl)amino]pentyl}but-2-enediamide]	> 50	100	50	>100	25	>100	>100	>100	>100	50	>100	223 to 226	50	> 100	> 100	> 100					MIC values (range over strains) [17]: 6.1 to 12.5 µg/mL
COc1cc(NC(C)CCCNC(=O)/C=C/C(=O)Nc2cccc(C(F)(F)F)c2)c2ncccc2c1 (stereo not shown) [Compound 4e, (2E)-N′-{4-[(6-Methoxyquinolin-8-yl)amino]pentyl}-N-[3-(trifluoromethyl)phenyl]but-2-enediamide]	5.4	100	50	>100	50	>100	>100	>100	>100	50	50	149 to 150	50	8.9	> 100	> 100	> 50	10	1.8–3.7	3.1 to 5.5	
COc1cc(NC(C)CCCNC(=O)/C=C/C(=O)Nc2ccc(C(F)(F)F)cc2)c2ncccc2c1 (stereo not shown) [Compound 4f, (2E)-N′-{4-[(6-Methoxyquinolin-8-yl)amino]pentyl}-N-[4-(trifluoromethyl)phenyl]but-2-enediamide]	> 50	100	50	>100	25	>100	>100	>100	>100	50	25	189 to 191	50		> 100	> 100					IC50 [12]: > 100 µM
